Target: T1, CDK2 (Homo sapiens, UniProt P24941)
T1 construct: High-Throughput Measurement of Cellular Endogenous CDK2; endogenous in cells; host or cells: OVCAR3
Assay: Inhibition of CDK2: phospho-Rb (S807/811) HTRF measurement in cells
Assay type: cell-based
Settings: OVCAR3 cells (CDK2 dependent cell line), 24 h compound treatment, read-out: pRb
Description: Phosphorylation of RB protein at S807/811 are measured using HTRF phospho-RB cellular kits (Cat #64RBS807PEG) from Cisbio.
On Day 1, OVCAR3 (CDK2 dependent cell line) cells are seeded into 96-well tissue-culture treated plates at 20,000 cells/well in 200 μL and incubated overnight at 37° C. in CO2 atmosphere. On Day 2, the cells are treated with test compounds at concentrations from 0.3 to 10,000 nM using HP D300 digital dispenser. Twenty-four hours after compound treatment, cell culture media is removed by flicking the plate and tapping the plate against clean paper towel. Immediately 30 μL 1× lysis buffer is supplemented from the kit and the plate is incubated at room temperature on shaker for 30 min. After homogenization by pipetting up and down, 8 μL cell lysate from 96-well cell culture plate is transferred to 384-well small volume white detection plate. 2 μL premixed detection solution is added and the plate was covered with sealer. To prepare the detection solution, d2 conjugated-phospho-RB antibody and Eu-cryptate conjugated phosphor-RB antibody are diluted into detection buffer following manufacturer's instruction. Detection plates are incubated for 4 h at room temperature and read on ClarioStar (BMG Labtech) in TR-FRET mode ([…]). The TR-FRET ratio (665 nM/620 nM) is plotted against the compound concentration and normalized to DMSO controls. Half maximal inhibition concentration (IC50) values are calculated with a four-parameter logistic fit using GraphPad Prism (version 8; La Jolla, CA).

Structure (SMILES) | IC50
Cn1nc(N2CCC(=O)NC2=O)c2ccc(C3CCN(Cc4cccc(S(=O)(=O)N5CCC(Nc6ncc(C(F)(F)F)c(N7CCCC7)n6)CC5)c4)CC3)cc21 [Cpd 4, 1-(1-methyl-6-(1-(3-((4-((4-(pyrrolidin-1-yl)-5-(trifluoromethyl)pyrimidin-2-yl)amino)-piperidin-1-yl)sulfonyl)benzyl)piperidin-4-yl)-1H-indazol-3-yl)dihydropyrimidine-2,4(1H,3H)-dione] | 100 to 500 nM
Cn1nc(N2CCC(=O)NC2=O)c2ccc(C3CCN(Cc4cccc(S(=O)(=O)N5CCC(Nc6ncc(C(F)(F)F)c(OC7CCC7)n6)CC5)c4)CC3)cc21 [Cpd 5, 1-(6-(1-(3-((4-((4-cyclobutoxy-5-(trifluoro-methyl)pyrimidin-2-yl)amino)piperidin-1-yl)sulfonyl)benzyl)piperidin-4-yl)-1-methyl-1H-indazol-3-yl)dihydropyrimidine-2,4(1H,3H)-dione] | 28 to 100 nM
Cn1nc(N2CCC(=O)NC2=O)c2ccc(C3CCN(CC4CCN(S(=O)(=O)c5ccc(Nc6ncc(C(F)(F)F)c(O[C@H]7CCC[C@H]7O)n6)cc5)CC4)CC3)cc21 (racemic) [compound 6, Rac-1-(6-(1-((1-((4-((4-(((1S,2R)-2-hydroxy-cyclopentyl)oxy)-5-(trifluoromethyl)-pyrimidin-2-yl)amino)phenyl)-sulfonyl)-piperidin-4-yl)methyl)piperidin-4-yl)-1-methyl-1H-indazol-3-yl)dihydropyrimidine-2,4(1H,3H)-dione] | 100 to 500 nM

The remaining lines, values ahead:

IC50 | Structure (SMILES)
28 to 100 nM | Cn1nc(N2CCC(=O)NC2=O)c2ccc(C3CCN(Cc4cccc(S(=O)(=O)N5CCC(Nc6ncc(C(F)(F)F)c(O[C@@H]7CCC[C@@H]7O)n6)CC5)c4)CC3)cc21 (racemic) [Cpd 3, Rac-1-(6-(1-(3-((4-((4-(((1R,2S)-2-hydroxy-cyclopentyl)oxy)-5-(trifluoro-methyl)-pyrimidin-2-yl)amino)piperidin-1-yl)-sulfonyl)benzyl)piperidin-4-yl)-1-methyl-1H-indazol-3-yl)dihydropyrimidine-2,4(1H,3H)-dione]
100 to 500 nM | Cn1nc(N2CCC(=O)NC2=O)c2ccc(C3CCN(Cc4cccc(S(=O)(=O)N5CCC(Nc6ncc(C(F)(F)F)c(N7CCCCC7)n6)CC5)c4)CC3)cc21 [Cpd 1, 1-(1-methyl-6-(1-(3-((4-((4-(piperidin-1-yl)-5-(trifluoromethyl)pyrimidin-2-yl)amino)-piperidin-1-yl)sulfonyl)benzyl)-piperidin-4-yl)-1H-indazol-3-yl)dihydropyrimidine-2,4(1H,3H)-dione]
28 to 100 nM | Cn1nc(N2CCC(=O)NC2=O)c2ccc(C3CCN(Cc4cccc(S(=O)(=O)N5CCC(Nc6ncc(C(F)(F)F)c(OC7CCCC7)n6)CC5)c4)CC3)cc21 [Cpd 2, 1-(6-(1-(3-((4-((4-(cyclopentyloxy)-5-(trifluoromethyl)pyrimidin-2-yl)amino)-piperidin-1-yl)sulfonyl)benzyl)-piperidin-4-yl)-1-methyl-1H-indazol-3-yl)dihydro-pyrimidine-2,4(1H,3H)-dione]
